The values below come from PubChem BioAssay AID2202554 (NIEHS Division of Translational Toxicology (DTT)).

Inconclusive results are not listed. Activity calls are given as the source filed them. How the calls were made is not given here.

This series relates to S. typhimurium/E. coli reverse mutation, colony counts. Put plainly: Bacterial reverse mutation test (aka Ames test) summary data. A digest of the protocol:
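S. typhimurium his⁻ strains (TA97–TA1538) and E. coli WP2 uvrA pKM101 trp⁻, dosed over a range with or without rat, hamster or mouse liver S9. Preincubated 20 min at 37° C (or plate incorporation), plated in agar, incubated usually two days. Revertant colonies counted against negative controls.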
(In the Ames test, an excess of revertant colonies over the control signals mutagenicity.)
On to `O=C(OCC(COC(=O)c1ccccc1)(COC(=O)c1ccccc1)COC(=O)c1ccccc1)c1ccccc1`, for which the outcome is “inactive; negative”.
In the case of `BrC(Br)C(Br)(Br)Br` it was “inactive; negative”; in that of `C=C(C)C#N`, “inactive; negative”.
In the case of `CCCCCN(CCCCC)CCCCC`, the outcome is “inactive; negative”.
In the case of `c1ccc2sc(SSc3nc4ccccc4s3)nc2c1` it was “active; positive”.
Next, `C=CCOCC1CO1` (stereo unspecified): “active; positive”; `CN(C)C(=S)SSC(=S)N(C)C`: “active; positive”.
Turning to `CCN1CCOCC1`, the outcome is “active; weakly positive”.
Next, `Cc1c(C)c2c(c(C)c1OC(=O)CCC(=O)O)CC[C@@](C)(CCC[C@H](C)CCC[C@H](C)CCCC(C)C)O2`: “inactive; negative”.
For the compound `COCC1CCC(CO)CC1` (stereo unspecified), the outcome is “inactive; negative”.
For the compound `O=C(O)C(Cl)(Br)Br`, the outcome is “active; positive”.
In the case of `Cc1cc(=O)oc2cc(O)ccc12` it was “inactive; negative”; in that of `O=Cc1ccccc1Cl`, “inactive; negative”.
For `C=CC(=C)CCC=C(C)C`, the outcome is “inactive; negative”.
In the case of `NCCNCCO` it was “active; weakly positive”; in that of `CC(C)(C)OOC(=O)c1ccccc1`, “active; positive”; in that of `CC(N)C(=O)O` (stereo unspecified), “inactive; negative”.
In the case of `CC1CCCO1` (stereo unspecified) it was “inactive; negative”; in that of `COc1cc(-c2ccc(N)c(OC)c2)ccc1N`, “active; positive”; in that of `O=C(OC1CCCCC1)c1ccccc1C(=O)OC1CCCCC1`, “inactive; negative”.
Next, `O=C1c2c(O)ccc([N+](=O)[O-])c2C(=O)c2c([N+](=O)[O-])ccc(O)c21`: “active; positive”.
`CCOc1ccc(NC(C)=O)cc1`: the outcome is “inactive; negative”.
Next, `CC1=C(/C=C/C(C)=C/C=C/C(C)=C/C=O)C(C)(C)CCC1`: “active; positive”.
Next, `C=CC1CO1` (stereo unspecified): “active; positive”.
As for `C1CCC2CCCCC2C1` (stereo unspecified), the outcome was “inactive; negative”.
Next, `COc1c(Cl)c(Cl)c(Cl)c(Cl)c1Cl`: “active; positive”; `Nc1ccccc1C(=O)O`: “inactive; negative”.
Next, `COP(=S)(OC)Oc1ccc(SC)c(C)c1`: “active; weakly positive”; `COc1ccc(C(=O)/C(Br)=C\C(=O)O)cc1`: “active; positive”.
Consider `CCCCCC[C@@H](O)C/C=C\CCCCCCCC(=O)O`, for which the outcome is “inactive; negative”.
Next, `Oc1ccccc1O`: “inactive; negative”; `Cc1ccc(S(=O)(=O)Oc2ccc(N=Nc3ccc(-c4ccc(N=Nc5c(O)ccc6cc(S(=O)(=O)O)cc(S(=O)(=O)O)c56)c(C)c4)cc3C)cc2)cc1`: “active; positive”; `CC(COC(=O)c1ccccc1)(COC(=O)c1ccccc1)COC(=O)c1ccccc1`: “inactive; negative”.
In the case of `CC1=C(/C=C/C(C)=C/C=C/C(C)=C\C=O)C(C)(C)CCC1` it was “active; weakly positive”.
In the case of `Cc1cc(-c2ccc(N=Nc3c(S(=O)(=O)O)cc4cc(S(=O)(=O)O)cc(N)c4c3O)c(C)c2)ccc1N=Nc1c(S(=O)(=O)O)cc2cc(S(=O)(=O)O)cc(N)c2c1O` it was “active; positive”; in that of `Nc1ccc2ccccc2c1`, “active; positive”.
For `C=C(C)[C@@]12O[C@@]3(c4ccccc4)O[C@@H]1[C@@H]1[C@@H]4O[C@]4(CO)[C@@H](O)[C@]4(O)C(=O)C(C)=C[C@H]4[C@@]1(O3)[C@H](C)[C@H]2OC(=O)/C=C/C=C/c1ccccc1`, the outcome was “inactive; negative”.
Next, `CCOC(=O)CC(SP(=O)(OC)OC)C(=O)OCC` (stereo unspecified): “inactive; negative”; `Oc1ccc(Cl)cc1Sc1cc(Cl)ccc1O`: “inactive; negative”; `O=C1c2c(O)cccc2Cc2cccc(O)c21`: “inactive; negative”.
Next, `CSCCC=O`: “inactive; negative”.
In the case of `CC(=O)Nc1ccc(C)cc1` it was “active; weakly positive”.
In the case of `COC(=O)c1ccc(C(=O)OC)cc1`, the outcome was “inactive; negative”.
Next, `CCOC(=O)c1ccccc1N`: “inactive; negative”; `CCCCCC(=O)O`: “inactive; negative”; `Cc1ccc([N+](=O)[O-])cc1C(=O)O`: “active; positive”.
In the case of `CCNc1ccccc1`, the outcome is “inactive; negative”.
In the case of `Cc1ccc2nc(-c3ccc(N)cc3)sc2c1S(=O)(=O)O` it was “active; positive”; in that of `C[C@](N)(Cc1ccc(O)c(O)c1)C(=O)O`, “inactive; negative”; in that of `Cc1ccnc2c1NC(=O)c1cccnc1N2C1CC1`, “inactive; negative”.
Next, `CCCCCCCCCCCCCCCCCC(O)=[OH+].O.[Cl][Cr][Cl].[Cl][Cr][Cl]`: “active; positive”; `BrC(Br)Br`: “active; positive”; `COCCOCCOC`: “inactive; negative”.
In the case of `CC(C)N` it was “inactive; negative”; in that of `O=C(O)COc1ccccc1`, “inactive; negative”.
For the compound `CCOC(C)=O`, the outcome is “inactive; negative”.
Next, `O=C(O)c1ccc(O)cc1O`: “inactive; negative”; `O.O=S(=O)([O-])[O-].[Mn+2]`: “inactive; negative”.
Next, `Oc1c(Cl)cc(Cl)c(Cl)c1Cc1c(O)c(Cl)cc(Cl)c1Cl`: “inactive; negative”.
As for `Nc1cccc(N)c1`, the outcome is “active; positive”.
Next, `CNNC`: “inactive; negative”; `CCC[N+](CCC)(CCC)CCC`: “active; weakly positive”.
Next, `Cc1ccc([N+](=O)[O-])c(C(=O)O)c1`: “active; positive”.
`CC(C)(C)OCC1CO1` (stereo unspecified): the outcome is “active; positive”.
`O=C(NCO)NCO`: the outcome is “active; positive”.
Next, `CCN(CC)c1ccc(C(=C2C=CC(=[N+](CC)CC)C=C2)c2ccc(S(=O)(=O)O)cc2S(=O)(=O)[O-])cc1`: “active; positive”.
In the case of `C=C(C)OC(C)=O` it was “inactive; negative”.
Next, `C`: “inactive; negative”.
Consider `C#C[C@]1(O)CC[C@H]2[C@@H]3CCc4cc(O)ccc4[C@H]3CC[C@@]21C`, for which the outcome was “inactive; negative”.
On to `CCCCC(=O)OCC`, for which the outcome is “inactive; negative”.
Next, `CC1(C)S[C@@H]2[C@H](NC(=O)[C@H](N)c3ccccc3)C(=O)N2[C@H]1C(=O)O`: “inactive; negative”.
As for `C[C@]12C=CC(=O)C=C1CC[C@@H]1[C@@H]2C(=O)C[C@@]2(C)[C@H]1CC[C@]2(O)C(=O)CO`, the outcome is “active; positive”.
Next, `CCN(C=O)CC`: “inactive; negative”; `NC(=O)c1ccccc1O`: “inactive; negative”.
Next, `[CH3][Sn]([Cl])([Cl])[Cl]`: “inactive; negative”; `O=C(Cl)c1ccccc1F`: “active; positive”; `CCCCOB(OCCCC)OCCCC`: “inactive; negative”.
Regarding `COc1ccc([N+](=O)[O-])cc1N=Nc1c(O)c(C(=O)Nc2cccc([N+](=O)[O-])c2)cc2ccccc12`, the outcome was “active; positive”.
Next, `CCN(CC)CCN1C(=O)CN=C(c2ccccc2F)c2cc(Cl)ccc21`: “inactive; negative”.
In the case of `ClC(Cl)C(Cl)(Cl)Cl` it was “inactive; negative”.
In the case of `CCc1cccc(C)c1N`, the outcome is “inactive; negative”.
In the case of `CN(C)CCN(C)C` it was “inactive; negative”; in that of `NC(=O)c1ccccc1`, “inactive; negative”.
Next, `CN(Cc1cnc2nc(N)nc(N)c2n1)c1c(Cl)cc(C(=O)N[C@@H](CCC(=O)O)C(=O)O)cc1Cl`: “active; weakly positive”; `COCCOC(=O)c1ccccc1C(=O)OCCOC`: “active; positive”.
Next, `O=C(O)C(Br)Br`: “active; positive”.
As for `C1CC2OC2CC1C1CO1` (stereo unspecified), the outcome was “active; positive”.
With `CCOCCOCCO`, the outcome is “inactive; negative”.
In the case of `S=[Se]` it was “active; positive”; in that of `O=[N+]([O-])c1cccc(Cl)c1Cl`, “active; weakly positive”; in that of `Cc1cc(C)c(C)c(C)c1`, “inactive; negative”.
Next, `C(=C/c1ccccc1)/c1ccccc1`: “inactive; negative”; `CC(C=O)=Cc1ccccc1`: “inactive; negative”; `CC(C)(c1ccc(OCC2CO2)cc1)c1ccc(OCC2CO2)cc1` (stereo unspecified): “active; positive”.
Next, `ClC(Cl)c1ccccc1`: “active; positive”.
With `CON`, the outcome was “inactive; negative”.
In the case of `CC(=O)CC(C)(C)O`, the outcome was “inactive; negative”.
As for `CCOC(C)(C)C`, the outcome is “inactive; negative”.
For the compound `CC1(C)S[C@@H]2[C@H](NC(=O)COc3ccccc3)C(=O)N2[C@H]1C(=O)O`, the outcome was “inactive; negative”.
Consider `O=[N+]([O-])C(Br)(CO)CO`, for which the outcome was “inactive; negative”.
Next, `CC(O)CO` (stereo unspecified): “inactive; negative”; `O=C(Cl)C(Cl)Cl`: “active; positive”.
In the case of `CC(=O)C(N=Nc1ccc(-c2ccc(N=NC(C(C)=O)C(=O)Nc3ccccc3)c(Cl)c2)cc1Cl)C(=O)Nc1ccccc1` (stereo unspecified) it was “inactive; negative”; in that of `Oc1ccc2cc(SSc3ccc4cc(O)ccc4c3)ccc2c1`, “inactive; negative”; in that of `CC(C)(C)OC=O`, “inactive; negative”.
For the compound `C[N+](C)(C)CCCl`, the outcome was “inactive; negative”.
